Legend:
[1] = system: H1975 human NSCLC adenocarcinoma cells (drug-resistant mutant ERBB1, T790M in-cis with L858R); assay: Cell proliferation assay, H1975; type: cell-based
Method: (§1) The biological activity of a test compound was determined using cell proliferation assays. The activity against wild-type ERBB 1 was determined using A431 human epidermoid carcinoma cells (ATCC) and human epidermal keratinocytes, neonatal, or HEKn cells (ATCC).
(§2) A431 cells were grown in DMEM (Invitrogen) supplemented with 10% FBS (Lonza), 1% penicillin-streptomycin, and 2 mM glutamine (Invitrogen). HEKn cells were grown in EPILIFE® (Invitrogen) supplemented with HKGS (Invitrogen). HCC827 and H1975 were cultured in RPMI1640 supplemented with 10% FBS (Lonza), 1% penicillin-streptomycin, and 2 mM glutamine (Invitrogen). Cells were maintained and propagated at 37° C. and 5% CO2 in a humidified cell culture incubator. Aliquots of cells from early passages were preserved for liquid nitrogen storage. Frozen vials of cells were thawed at 37° C. water bath. Cells were spun to remove freezing medium. The newly revived frozen cells were adapted in culture for 10 days before used for compound testing. Cells used in the assay were less than 20 subculture passages or 3 months in culture.
(§3) The test compounds were dissolved in dimethylsulfoxide (DMSO) and stored at -20° C. before testing. […] The cells were placed in a culture incubator overnight. Next day, test compounds in DMSO were added to the cells and placed back in the culture incubator for 72 hrs. In the meantime, the cell numbers at time zero of the compound treatment (T0) was measured by ENERCOUNT® (Codex BioSolutions). At the end of the compound treatment, the cell numbers were again measured by EnerCount as T72 values. The untreated controls (Ctrl) were cell numbers recorded from the 0.1% DMSO treatment. The percent growth inhibition by the test compound was calculated by the formula: (1- (T72-T0)/(Ctrl-T0)) x 100.
(§4) The results are summarized in Tables 1 and 2, wherein A represents a value no greater than 500 nM, B represents a value greater than 500 nM but no greater than 1 µM, C represents a value greater than 1 µM but no greater than 5 µM, and D represents a value greater than 5 µM; and wherein A′ represents a ratio of greater than 10, B′ represents a ratio of no greater than 10 but no less than 5, C′ represents a ratio of no greater than 5 but no less than 2, and D′ represents a ratio of no greater than 2.

BTK = BTK (Homo sapiens, UniProt Q06187); assay: Inhibition of BTK kinase; type: biochemical; details: 1% DMSO
BTK, sequence (Q06187 whole entry): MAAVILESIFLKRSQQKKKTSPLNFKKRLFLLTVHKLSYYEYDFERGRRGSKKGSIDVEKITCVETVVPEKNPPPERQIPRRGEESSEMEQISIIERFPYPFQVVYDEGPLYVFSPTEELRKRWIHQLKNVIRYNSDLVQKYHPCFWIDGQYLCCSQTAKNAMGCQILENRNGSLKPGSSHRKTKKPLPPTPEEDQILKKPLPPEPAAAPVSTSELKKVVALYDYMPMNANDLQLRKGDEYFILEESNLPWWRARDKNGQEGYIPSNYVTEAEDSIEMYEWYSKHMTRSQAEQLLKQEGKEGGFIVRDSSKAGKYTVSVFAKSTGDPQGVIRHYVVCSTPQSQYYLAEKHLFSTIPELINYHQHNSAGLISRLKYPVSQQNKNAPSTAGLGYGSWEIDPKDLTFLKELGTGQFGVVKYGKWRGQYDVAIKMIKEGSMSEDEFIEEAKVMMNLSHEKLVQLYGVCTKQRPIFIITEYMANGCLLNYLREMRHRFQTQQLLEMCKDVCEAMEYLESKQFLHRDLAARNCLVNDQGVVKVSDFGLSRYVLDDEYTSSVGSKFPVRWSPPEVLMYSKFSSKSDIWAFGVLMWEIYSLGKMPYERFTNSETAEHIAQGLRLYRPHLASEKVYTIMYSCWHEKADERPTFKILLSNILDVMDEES
Source text: (§5) The Z′-LYTE® biochemical assay is a fluorescence-based, coupled-enzyme assay based on the differential sensitivity of phosphorylated and non-phosphorylated peptides to proteolytic cleavage. A peptide substrate for a kinase is labeled with two fluorophores, one at each end, to form a FRET pair.
(§6) In the primary reaction, the kinase transfers the gamma-phosphate of ATP to a single tyrosine, serine, or threonine residue in the synthetic FRET-peptide substrate. In the secondary reaction, a site-specific protease recognizes and cleaves non-phosphorylated FRET-peptides. Cleavage disrupts FRET between the donor and acceptor fluorophores on the FRET-peptide, whereas uncleaved, phosphorylated FRET-peptides maintain FRET. An inhibitory activity of a compound is thus determined from its effect on the cleavage of the synthetic FRET-peptide substrate.
(§7) Inhibition of BMX, BTK, ITK, and TXK kinases by a test compound is determined in 50 mM HEPES, pH 7.5, 0.01% BRIJ-35, 10 mM MgCl2, and 1 mM EGTA in the presence of 1% DMSO by volume.
(§8) Inhibition of BMX, BTK, PIK3C-D, ITK, TEC, and TXK kinases by compound A2 was measured using one of the assays described in Examples 2A and 3A.

[2] = system: human epidermal keratinocytes, neonatal, or HEKn cells (wild-type ERBB1); assay: Cell proliferation assay, HEKn; type: cell-based; details: Keratinocyte, 72 hrs
Method: as §1, §2, §3, §4

BMX = target: T1, BMX (Homo sapiens, UniProt P51813); assay: Inhibition of BMX kinase; type: biochemical; details: 1% DMSO
T1 sequence (P51813 1-675): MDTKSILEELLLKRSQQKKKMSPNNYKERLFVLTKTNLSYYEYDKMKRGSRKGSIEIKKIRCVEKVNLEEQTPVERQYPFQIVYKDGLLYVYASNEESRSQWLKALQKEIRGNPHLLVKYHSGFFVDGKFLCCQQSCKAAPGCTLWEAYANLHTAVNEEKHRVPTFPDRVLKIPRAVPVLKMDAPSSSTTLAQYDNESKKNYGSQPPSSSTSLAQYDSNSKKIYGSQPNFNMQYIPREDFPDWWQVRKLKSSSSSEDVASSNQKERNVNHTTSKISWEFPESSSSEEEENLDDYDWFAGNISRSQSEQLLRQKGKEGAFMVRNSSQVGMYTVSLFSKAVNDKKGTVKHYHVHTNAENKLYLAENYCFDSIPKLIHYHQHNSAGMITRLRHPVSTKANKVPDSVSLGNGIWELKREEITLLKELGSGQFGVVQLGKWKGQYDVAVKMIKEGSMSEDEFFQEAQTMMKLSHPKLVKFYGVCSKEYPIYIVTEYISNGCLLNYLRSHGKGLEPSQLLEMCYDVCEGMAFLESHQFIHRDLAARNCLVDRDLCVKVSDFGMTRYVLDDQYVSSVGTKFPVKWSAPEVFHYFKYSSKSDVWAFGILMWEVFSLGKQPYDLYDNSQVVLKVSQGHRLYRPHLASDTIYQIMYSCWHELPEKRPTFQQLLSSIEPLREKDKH
Source text: as §5, §6, §7, §8

`C=CC(=O)N1CCCC[C@@H](n2c(NC(=O)c3ccnc(C)c3)nc3cccc(OC4CCN(C(C)=O)CC4)c32)C1` [Compound A2, (R)-N-(7-((1-acetylpiperidin-4-yl)oxy)-1-(1-acryloylazepan-3-yl)-1H-benzo[d]imidazol-2-yl)-2-methylisonicotinamide] was tested, and the “Ratio (Wild-type ERBB1/Mutant ERBB1) A431/H1975” value ([1]; GI50 ratio A431/H1975) was “B′ (B′ represents a ratio of no greater than 10 but no less than 5)”, the “Ratio (Wild-type ERBB1/Mutant ERBB1) HEKn/H1975” value ([1]; GI50 ratio HEKn/H1975) was “A′ (A′ represents a ratio of greater than 10)” and the GI50 ([1]; Homo sapiens, NCI-H1975, H1975 cells, 72 hrs) was < 0.5 µM. For the same compound, the IC50 (BTK) was ≤ 0.01 µM, the Inhibition (BTK) was “A (A represents a value no greater than 10 nM or no less than 90% inhibition)” and the GI50 [2] was > 5 µM. The IC50 (BMX) was ≤ 0.01 µM and the Inhibition (BMX) was “A (A represents a value no greater than 10 nM or no less than 90% inhibition)”.

Source: US20230271938A1, “BENZIMIDAZOLES FOR USE IN THE TREATMENT OF CANCER AND INFLAMMATORY DISEASES” (Capella Therapeutics, Inc., priority 2015, published 2023)
